From publication PMC2772170 (Journal of medicinal chemistry, 2009)

Tests used:
TGR [1] = molecular target: T1, TGR (Schistosoma mansoni, UniProt Q962Y6); details: cited from earlier work
T1 sequence (Q962Y6 1-598): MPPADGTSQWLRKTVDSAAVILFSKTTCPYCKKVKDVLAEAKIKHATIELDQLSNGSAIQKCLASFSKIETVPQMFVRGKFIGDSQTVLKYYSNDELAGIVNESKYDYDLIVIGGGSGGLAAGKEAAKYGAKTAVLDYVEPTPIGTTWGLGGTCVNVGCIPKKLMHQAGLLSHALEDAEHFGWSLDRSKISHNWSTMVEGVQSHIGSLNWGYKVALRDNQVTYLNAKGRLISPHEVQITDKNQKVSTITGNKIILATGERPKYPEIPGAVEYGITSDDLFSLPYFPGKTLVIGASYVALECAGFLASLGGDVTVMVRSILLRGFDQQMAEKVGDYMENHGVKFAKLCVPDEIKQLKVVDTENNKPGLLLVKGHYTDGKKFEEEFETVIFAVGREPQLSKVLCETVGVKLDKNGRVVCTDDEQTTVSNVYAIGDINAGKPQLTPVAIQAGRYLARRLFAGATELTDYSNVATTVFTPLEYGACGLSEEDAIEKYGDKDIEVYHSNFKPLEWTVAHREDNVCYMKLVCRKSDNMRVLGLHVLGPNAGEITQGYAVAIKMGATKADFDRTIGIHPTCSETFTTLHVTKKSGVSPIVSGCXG

ex vivo worms in culture = assay: Ex vivo parasite killing, visual examination of cultured worms; set-up: species or system Schistosoma; details: 10 μM compound, cultured worms
[2] = ABTS oxidation; cited from earlier work
Caco-2 permeability = details: human
Microsomal stability = details: human liver microsomes, 60 minutes at 37 °C
TGR [3] = molecular target: T1, TGR; type: biochemical; details: with TGR; ABTS method, data in supporting information

Row | Compound | NO generation in the presence of TGR/NADPH (TGR [1]) | Ex Vivo Parasite Killing 2 hr (ex vivo worms in culture) | Ex Vivo Parasite Killing 4 hr (ex vivo worms in culture) | Ex Vivo Parasite Killing 8 hr (ex vivo worms in culture; 8 hr) | Ex Vivo Parasite Killing 16 hr (ex vivo worms in culture; 16 hr) | Ex Vivo Parasite Killing 24 hr (ex vivo worms in culture; 24 hr) | Ex Vivo Parasite Killing 48 hr (ex vivo worms in culture) | Ex Vivo Parasite Killing 72 hr (ex vivo worms in culture) | NO generation in the presence of cysteine [2] | Papp A→B (Caco-2 permeability) | Microsomal stability, NADPH (+) (Microsomal stability; with NADPH) | Microsomal stability, NADPH (−) (Microsomal stability; without NADPH) | NO release / NO donating ability (in words) (TGR [3])
1 | O=C(c1cccs1)c1no[n+]([O-])c1C(=O)c1cccs1 [Analogue 3, bis(thiophen-2-ylmethanone)-furoxan] | not in the presence of TGR/NADPH | n.e. | n.e. | n.e. | n.e. | n.e. | n.e. | n.e. | capable of NO generation in the presence of cysteine |  |  |  | 
2 | N#Cc1c(-c2cccs2)no[n+]1[O-] [Analogue 29] |  | n.e. | n.e. |  |  |  | 100%D | 100%D |  | 8.4 ×10⁻⁶ cm/s | 1 % remaining | 64 % remaining | good NO release profiles
